Data from patent EP4559908A1, “HETEROARYL DERIVATIVE COMPOUND AND USE THEREOF” (S2CBio Inc., priority 2022, dated 2024).

Target: T1, human ANO6 (variant 5) (Homo sapiens, UniProt Q4KMQ2)
T1 construct: expressed in transfected cells; host or cells: Fischer rat thyroid (FRT) cells
T1 sequence (Q4KMQ2 1-931 isoform Q4KMQ2-2): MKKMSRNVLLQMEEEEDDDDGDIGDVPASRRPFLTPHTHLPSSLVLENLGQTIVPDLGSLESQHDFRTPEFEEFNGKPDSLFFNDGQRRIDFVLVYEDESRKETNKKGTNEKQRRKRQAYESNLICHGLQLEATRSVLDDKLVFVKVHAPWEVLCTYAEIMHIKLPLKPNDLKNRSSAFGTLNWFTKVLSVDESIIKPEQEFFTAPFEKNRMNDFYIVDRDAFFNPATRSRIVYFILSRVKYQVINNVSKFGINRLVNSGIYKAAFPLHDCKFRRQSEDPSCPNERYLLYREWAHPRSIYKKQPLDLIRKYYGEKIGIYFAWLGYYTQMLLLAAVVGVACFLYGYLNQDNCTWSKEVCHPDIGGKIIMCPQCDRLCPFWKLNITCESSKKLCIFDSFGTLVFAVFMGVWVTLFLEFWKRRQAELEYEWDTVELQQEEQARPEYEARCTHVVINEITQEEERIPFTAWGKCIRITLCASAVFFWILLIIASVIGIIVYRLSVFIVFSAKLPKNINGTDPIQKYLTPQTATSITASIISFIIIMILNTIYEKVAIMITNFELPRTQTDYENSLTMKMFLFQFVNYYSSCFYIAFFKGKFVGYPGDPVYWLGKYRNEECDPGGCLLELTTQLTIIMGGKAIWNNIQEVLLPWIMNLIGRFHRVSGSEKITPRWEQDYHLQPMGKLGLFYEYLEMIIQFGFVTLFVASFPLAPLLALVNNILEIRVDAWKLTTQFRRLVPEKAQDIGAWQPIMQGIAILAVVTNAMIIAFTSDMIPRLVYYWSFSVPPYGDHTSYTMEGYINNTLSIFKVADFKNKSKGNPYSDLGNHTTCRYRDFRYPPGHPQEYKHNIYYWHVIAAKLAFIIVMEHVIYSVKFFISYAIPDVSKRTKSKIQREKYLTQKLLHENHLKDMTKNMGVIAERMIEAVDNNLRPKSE
Experiment: Lact C2 assay (measuring phosphatidylserine externalization scramblase function)
Assay type: cell-based
Conditions: FRT, FRT cells expressing human ANO6 (variant 5), ionomycin 10 µM, Lact-C2-GFP fluorescence, average of three tests; for inhibition at 0.05 µM: compound 50 nM, read-out: % Inhibition 50 nM; for inhibition at 1 µM: compound 1 µM, read-out: % Inhibition 1 µM
Procedure, shortened: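 Cells were pretreated 10 min with compound (50 nM, 100 nM, 1 µM; 1% DMSO), then given 10 µM ionomycin for 10 min. Surface phosphatidylserine was stained with 500 nM Lact-C2-GFP (10 min, 37 °C), fixed and imaged. Inhibition was scaled between untreated (100%) and ionomycin-alone (0%) wells.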

| inhibition at 0.05 µM | inhibition at 1 µM | Compound |
| --- | --- | --- |
| 30 to 60% | > 60% | FC(F)(F)Oc1ccc2nc(-c3cccc(Nc4ncc(-c5cccnn5)cn4)c3)[nH]c2c1 [Example 295, 5-(pyridazin-3-yl)-N-(3-(6-(trifluoromethoxy)-1H-benzo[d]imidazol-2-yl)phenyl)pyrimidin-2-amine] |
|  | 30 to 60% | FC(F)(F)c1ccc2nc(-c3cccc(Nc4ccc(-c5ccncn5)nn4)c3)[nH]c2c1 [Example 296, 6-(pyrimidin-4-yl)-N-(3-(6-(trifluoromethyl)-1H-benzo[d]imidazol-2-yl)phenyl)pyridazin-3-amine] |
| > 60% | > 60% | Fc1cc2nc(-c3cccc(Nc4cnc(-c5ccncn5)cn4)c3)[nH]c2cc1F [Example 297, N-(3-(5,6-difluoro-1H-benzo[d]imidazol-2-yl)phenyl)-5-(pyrimidin-4-yl)pyrazin-2-amine] |
| 30 to 60% | > 60% | Fc1cc2nc(-c3cccc(Nc4cnc(-c5ccccn5)cn4)c3)[nH]c2cc1F [Example 298, N-(3-(5,6-difluoro-1H-benzo[d]imidazol-2-yl)phenyl)-5-(pyridin-2-yl)pyrazin-2-amine] |
|  | > 60% | COc1ccc2nc(-c3cccc(Nc4cnc(-c5ccccn5)cn4)c3)[nH]c2c1 [Example 299, N-(3-(6-methoxy-1H-benzo[d]imidazol-2-yl)phenyl)-5-(pyridin-2-yl)pyrazin-2-amine] |
| 30 to 60% | > 60% | FC(F)Oc1ccc2nc(-c3cccc(Nc4cnc(-c5ccccn5)cn4)c3)[nH]c2c1 [Example 300, N-(3-(6-(difluoromethoxy)-1H-benzo[d]imidazol-2-yl)phenyl)-5-(pyridin-2-yl) pyrazin-2-amine] |
|  | > 60% | Clc1cc2[nH]c(-c3cccc(Nc4cnc(-c5ccccn5)cn4)c3)nc2cn1 [Example 301, N-(3-(6-chloro-1H-imidazo[4,5-c]pyridin-2-yl)phenyl)-5-(pyridin-2-yl)pyrazin-2-amine] |
| > 60% | > 60% | FC(F)(F)c1ccc2nc(-c3cccc(Nc4cnc(-c5ccccn5)cn4)c3)[nH]c2c1 [Example 302, 5-(pyridin-2-yl)-N-(3-(6-(trifluoromethyl)-1H-benzo[d]imidazol-2-yl)phenyl)pyrazin-2-amine] |
|  | > 60% | Clc1cc2[nH]c(-c3cccc(Nc4ncc(-c5cscn5)cn4)c3)nc2cn1 [Example 303, N-(3-(6-chloro-1H-imidazo[4,5-c]pyridin-2-yl)phenyl)-5-(thiazol-4-yl)pyrimidin-2-amine] |
| 30 to 60% | > 60% | FC(F)(F)c1ccc2nc(-c3cccc(Nc4ncc(-c5cscn5)cn4)c3)[nH]c2c1 [Example 304, 5-(thiazol-4-yl)-N-(3-(6-(trifluoromethyl)-1H-benzo[d]imidazol-2-yl)phenyl)pyrimidin-2-amine] |
| 30 to 60% | > 60% | Fc1ccnc(-c2ccc(Nc3cccc(-c4nc5ccc(C(F)(F)F)cc5[nH]4)c3)cc2)c1 [Example 305, N-(4-(4-fluoropyridin-2-yl)phenyl)-3-(6-(trifluoromethyl)-1H-benzo[d]imidazol-2-yl)aniline] |
|  | 30 to 60% | FC(F)(F)c1ccc2nc(-c3ccnc(Nc4ncc(-c5ccccn5)cn4)c3)[nH]c2c1 [Example 306, 5-(pyridin-2-yl)-N-(4-(6-(trifluoromethyl)-1H-benzo[d]imidazol-2-yl)pyridin-2-yl)pyrimidin-2-amine] |
|  | 30 to 60% | FC(F)(F)c1ccc2nc(-c3cncc(Nc4ncc(-c5ccccn5)cn4)c3)[nH]c2c1 [Example 307, 5-(pyridin-2-yl)-N-(5-(6-(trifluoromethyl)-1H-benzo[d]imidazol-2-yl)pyridin-3-yl)pyrimidin-2-amine] |
| > 60% | > 60% | Brc1ccc2nc(-c3cccc(Nc4ccc(-c5cccnn5)cc4)c3)[nH]c2c1 [Example 308, 3-(6-bromo-1H-benzo[d]imidazol-2-yl)-N-(4-(pyridazin-3-yl)phenyl)aniline] |
| > 60% | > 60% | N#Cc1ccc(Nc2cccc(-c3nc4ccc(C(F)(F)F)cc4[nH]3)c2)nc1 [Example 314, 6-((3-(6-(trifluoromethyl)-1H-benzo[d]imidazol-2-yl)phenyl)amino)nicotinonitrile] |
|  | > 60% | N#Cc1ccc(Nc2cccc(-c3nc4ccc(C(F)(F)F)cc4[nH]3)c2)cc1 [Example 315, 4-((3-(6-(trifluoromethyl)-1H-benzo[d]imidazol-2-yl)phenyl)amino)benzonitrile] |
|  | > 60% | Fc1ccccc1-c1ccc(Nc2cccc(-c3nc4ccccc4[nH]3)c2)cc1 [Example 322, N-(3-(1H-benzo[d]imidazol-2-yl)phenyl)-2'-fluoro-[1,1'-biphenyl]-4-amine] |
